Measurements from patent publication US20070281992A1, “COMBINATION OF GYRASE B INHIBITORS AND PROTEIN SYNTHESIS INHIBITORS AND USES THEREOF” (priority 2006, published 2007).
Where two headings read alike, the source gives them in different places.

Legend:
Format in all cases: cell-based
[1] = tested on: Unconfirmed Vancomycin-intermediate Staphylococcus aureus Isolates; test: MIC assay (NCCLS broth dilution), unconfirmed VISA isolates; settings: Staphylococcus aureus; for MIC: read-out: Minimal Inhibitory Concentration
Experimental: (§1) Antibiotics: novobiocin, tetracycline, minocycline, oxacillin, and vancomycin were all purchased from Sigma-Aldrich. Linezolid was obtained from Pfizer, Inc. Novobiocin/tetracycline and novobiocin/minocycline were tested in a 2.5:1 ratio to mimic the serum levels. (Vavra, J. J., 1967, Development of resistance to novobiocin, tetracycline, and novobiocin-tetracycline combinations in Staphylococcus aureus populations, J. Bacteriol 93(3):801). Compounds were tested across a concentration range consisting of 11 two-fold serial dilutions of test agent.
(§2) Stock solutions were prepared in sterile deionized water; novobiocin stock concentration was 1600 μg/mL and all other drugs stock solutions were prepared at 640 μg/mL. The stock solutions were allowed to sit at room temperature for one hour to auto-sterilize prior to use in the test. All compounds were in solution in water. The control agent was vancomycin hydrochloride, Sigma Chemical Lot # 015K0825.
(§3) The test organisms for the assay were 52 MSSA, 52 MRSA, 8 VISA, 7 VISE, and 3 LRSA isolates. Quality control strains included Staphylococcus aureus 0100 (ATCC 29213) and Enterococcus faecalis (ATCC 29212).
(§4) The MIC assay was performed according to published NCCLS guidelines. (National Committee for Clinical Laboratory Standards, Methods for Dilution Antimicrobial Susceptibility Tests for Bacteria that Grow Aerobically; Approved Standard-Sixth Edition, NCCLS Document M7-A6 [ISBN 1-56238-486-4], NCCLS, 940 West Valley Road, Suite 1400, Wayne, Pa. 19087-1898 USA, 2003). The test medium was Mueller Hinton II Broth for all organisms.

[2] = tested on: Linezolid-Resistant Staphylococcus aureus Isolates; test: MIC assay (NCCLS broth dilution), LRSA isolates; settings: Staphylococcus aureus; for MIC: read-out: Minimal Inhibitory Concentration
Experimental: as §1, §2, §3, §4

[3] = tested on: Unconfirmed Vancomycin-intermediate Staphylococcus epidermidis Isolates; test: MIC assay (NCCLS broth dilution), unconfirmed VISE isolates; settings: for MIC: read-out: Minimal Inhibitory Concentration
Experimental: as §1, §2, §3, §4

[4] = tested on: Enterococcus faecalis (ATCC 29212); test: MIC assay, quality control strain E. faecalis ATCC 29212; settings: ATCC29212, E. faecalis ATCC 29212, repeat runs 22FEB06-09MAR06, combinations at 2.5:1, read-out: Minimal Inhibitory Concentration, quality control
Experimental: as §1, §2, §3, §4

[5] = tested on: Vancomycin-intermediate Staphylococcus aureus Isolates; test: MIC assay (NCCLS broth dilution), VISA isolates; settings: for MIC: read-out: Minimal Inhibitory Concentration
Experimental: as §1, §2, §3, §4

[6] = tested on: Methicillin-Susceptible Staphylococcus aureus Isolates; test: MIC assay (NCCLS broth dilution), MSSA clinical isolates; settings: Staphylococcus aureus; for MIC: read-out: Minimal Inhibitory Concentration
Experimental: as §1, §2, §3, §4

[7] = tested on: Vancomycin-intermediate Staphylococcus epidermidis Isolates; test: MIC assay (NCCLS broth dilution), VISE isolates; settings: Staphylococcus epidermidis; for MIC: read-out: Minimal Inhibitory Concentration
Experimental: as §1, §2, §3, §4

[8] = 52 MSSA isolates, combinations at 2.5:1, given as NB/partner

CN(C)[C@@H]1C(O)=C(C(N)=O)C(=O)[C@@]2(O)C(O)=C3C(=O)c4c(O)cccc4[C@@](C)(O)[C@H]3C[C@@H]12 [TE, tetracycline]
MIC ([1]; Unconfirmed VISA isolate 2013, 03MAR06): 0.5 µg/mL | MIC ([1]; Unconfirmed VISA isolate 2014, 03MAR06): > 16 µg/mL | MIC ([1]; Unconfirmed VISA isolate 2015, 03MAR06): 0.06 µg/mL | MIC ([1]; Unconfirmed VISA isolate 2016, 03MAR06): 0.5 µg/mL | MIC ([1]; Unconfirmed VISA isolate 2017, 03MAR06): 0.25 µg/mL | MIC ([1]; Unconfirmed VISA isolate 2019, 03MAR06): > 16 µg/mL | MIC50 ([1]; 6 unconfirmed VISA isolates (vancomycin MIC 4 ug/ml), combinations at 2.5:1): 0.5 µg/mL | MIC ([2]; LRSA isolate 1651, 24FEB06): 0.5 µg/mL | MIC ([2]; LRSA isolate 1652, 24FEB06): 0.5 µg/mL | MIC ([2]; LRSA isolate 1725, 24FEB06): > 16 µg/mL | MIC50 ([2]; 3 LRSA isolates, combinations at 2.5:1): 0.5 µg/mL | MIC Range ([3]; 3 unconfirmed VISE isolates, combinations at 2.5:1): 0.5 to 2 µg/mL | MIC ([3]; Staphylococcus epidermidis, Unconfirmed VISE isolate 2024, 09MAR06): 2 µg/mL | MIC ([3]; Staphylococcus epidermidis, Unconfirmed VISE isolate 2025, 09MAR06): 0.5 µg/mL | MIC ([3]; Staphylococcus epidermidis, Unconfirmed VISE isolate 2026, 03MAR06): 2 µg/mL | MIC50 ([3]; Staphylococcus epidermidis, 3 unconfirmed VISE isolates, combinations at 2.5:1): 2 µg/mL | MIC [4]: 16 µg/mL | MIC Range ([5]; 2 VISA isolates, combinations at 2.5:1, given as NB/partner): .25 to 2 µg/mL | MIC ([5]; Staphylococcus aureus, VISA isolate 2012, 03MAR06): 2 µg/mL | MIC ([5]; Staphylococcus aureus, VISA isolate 2018, 03MAR06): 0.25 µg/mL | MIC50 ([5]; Staphylococcus aureus, 2 VISA isolates, combinations at 2.5:1, given as NB/partner): 0.25 µg/mL | MIC ([6]; MSSA isolate 133, 03MAR06): 0.5 µg/mL | MIC ([6]; MSSA isolate 134, 03MAR06): 0.5 µg/mL | MIC ([6]; MSSA isolate 135, 03MAR06): 0.5 µg/mL | MIC ([6]; MSSA isolate 753, 22FEB06): 0.5 µg/mL | MIC ([6]; MSSA isolate 754, 22FEB06): 0.5 µg/mL | MIC ([6]; MSSA isolate 754, 24FEB06): 0.5 µg/mL | MIC ([6]; MSSA isolate 755, 22FEB06): 0.5 µg/mL | MIC ([6]; MSSA isolate 756, 03MAR06): 0.5 µg/mL | MIC ([6]; MSSA isolate 779, 22FEB06): 0.5 µg/mL | MIC ([6]; MSSA isolate 780, 03MAR06): 0.5 µg/mL | MIC ([6]; MSSA isolate 781, 03MAR06): 0.5 µg/mL | MIC ([6]; MSSA isolate 782, 22FEB06): 1 µg/mL | MIC ([6]; MSSA isolate 783, 22FEB06): 0.5 µg/mL | MIC ([6]; MSSA isolate 784, 22FEB06): 16 µg/mL | MIC ([6]; MSSA isolate 785, 22FEB06): 0.5 µg/mL | MIC ([6]; MSSA isolate 786, 22FEB06): 0.5 µg/mL | MIC ([6]; MSSA isolate 787, 22FEB06): 0.5 µg/mL | MIC ([6]; MSSA isolate 788, 22FEB06): 0.5 µg/mL | MIC ([6]; MSSA isolate 789, 24FEB06): 0.5 µg/mL | MIC ([6]; MSSA isolate 790, 24FEB06): 0.5 µg/mL | MIC ([6]; MSSA isolate 791, 24FEB06): 0.5 µg/mL | MIC ([6]; MSSA isolate 792, 03MAR06): 0.5 µg/mL | MIC ([6]; MSSA isolate 793, 24FEB06): 0.5 µg/mL | MIC ([6]; MSSA isolate 794, 24FEB06): 0.5 µg/mL | MIC ([6]; MSSA isolate 994, 22FEB06): 0.5 µg/mL | MIC ([6]; MSSA isolate 995, 03MAR06): 0.5 µg/mL | MIC ([6]; MSSA isolate 996, 22FEB06): 0.5 µg/mL | MIC ([6]; MSSA isolate 997, 22FEB06): 0.5 µg/mL | MIC ([6]; MSSA isolate 998, 03MAR06): 0.5 µg/mL | MIC ([6]; MSSA isolate 999, 22FEB06): > 16 µg/mL | MIC ([6]; MSSA isolate 1000, 24FEB06): 0.5 µg/mL | MIC ([6]; MSSA isolate 1001, 24FEB06): 0.5 µg/mL | MIC ([6]; MSSA isolate 1002, 24FEB06): 0.5 µg/mL | MIC ([6]; MSSA isolate 1003, 03MAR06): 0.5 µg/mL | MIC ([6]; MSSA isolate 1005, 24FEB06): 0.25 µg/mL | MIC ([6]; MSSA isolate 1006, 24FEB06): 0.5 µg/mL | MIC ([6]; MSSA isolate 1007, 24FEB06): 0.5 µg/mL | MIC ([6]; MSSA isolate 1008, 24FEB06): 0.5 µg/mL | MIC ([6]; MSSA isolate 1009, 24FEB06): 0.5 µg/mL | MIC ([6]; MSSA isolate 1131, 24FEB06): 0.5 µg/mL | MIC ([6]; MSSA isolate 1132, 03MAR06): 0.5 µg/mL | MIC ([6]; MSSA isolate 1133, 24FEB06): 0.5 µg/mL | MIC ([6]; MSSA isolate 1134, 24FEB06): 0.5 µg/mL | MIC ([6]; MSSA isolate 1654, 03MAR06): 0.5 µg/mL | MIC ([6]; MSSA isolate 1656, 03MAR06): 0.5 µg/mL | MIC ([6]; MSSA isolate 1662, 03MAR06): 0.5 µg/mL | MIC ([6]; MSSA isolate 1663, 03MAR06): 1 µg/mL | MIC ([6]; MSSA isolate 1666, 03MAR06): 0.5 µg/mL | MIC ([6]; MSSA isolate 1667, 03MAR06): 1 µg/mL | MIC ([6]; MSSA isolate 1668, 03MAR06): 0.5 µg/mL | MIC ([6]; MSSA isolate 1671, 03MAR06): 0.5 µg/mL | MIC ([6]; MSSA isolate 1728, 03MAR06): 0.25 µg/mL | MIC ([6]; MSSA isolate 1728, retest 09MAR06): 0.25 µg/mL | MIC50 [6, 8]: 0.5 µg/mL | MIC90 [6, 8]: 0.5 µg/mL | MIC ([7]; VISE isolate 2020, 09MAR06): > 16 µg/mL | MIC ([7]; VISE isolate 2021, 09MAR06): 0.25 µg/mL | MIC ([7]; VISE isolate 2022, 03MAR06): 2 µg/mL | MIC ([7]; VISE isolate 2023, 03MAR06): 0.5 µg/mL | MIC50 ([7]; 4 VISE isolates, combinations at 2.5:1): 0.5 µg/mL
